Reference: ChEMBL document CHEMBL1201862, “PubChem BioAssay data set” (2004)
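In this assay, cells in 96-well plates receive the compound at five concentrations for 48 hours. Endpoints are linearly interpolated between the surrounding concentrations. At the GI50, growth is halved.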 The source made the active and inactive calls. Rule as the data show it: active = GI50 up to about 1.1 µM and inactive = higher.

Legend:
Test in all cases: NCI anticancer screen, dose series, 48 h
HCC 2998 = tested on: HCC 2998
SN12C = tested on: SN12C
SK-OV-3 = tested on: SK-OV-3
LOX IMVI = tested on: LOX IMVI
Malme-3M = tested on: Malme-3M
NCI/ADR-RES = tested on: NCI/ADR-RES
SF-268 = tested on: SF-268
UACC-257 = tested on: UACC-257
CAKI-1 = tested on: CAKI-1
U-251 = tested on: U-251
OVCAR-5 = tested on: OVCAR-5
SF-539 = tested on: SF-539
COLO 205 = tested on: COLO 205
MCF7 = tested on: MCF7
NCI-H460 = tested on: NCI-H460
SK-MEL-2 = tested on: SK-MEL-2
NCI-H23 = tested on: NCI-H23
HCT-15 = tested on: HCT-15
A549 = tested on: A549

SMILES	GI50 (HCC 2998)	GI50 (SN12C)	GI50 (SK-OV-3)	GI50 (LOX IMVI)	GI50 (Malme-3M)	GI50 (NCI/ADR-RES)	GI50 (SF-268)	GI50 (UACC-257)	GI50 (CAKI-1)	GI50 (U-251)	GI50 (OVCAR-5)	GI50 (SF-539)	GI50 (COLO 205)	GI50 (MCF7)	GI50 (NCI-H460)	GI50 (SK-MEL-2)	GI50 (NCI-H23)	GI50 (HCT-15) [µM]	GI50 (A549)
CC1=CC[C@@]2(C)CC[C@](O)(C(C)C)C2C(OC(=O)c2ccccc2)C1 (some centres not stated)	11.8 µM (inactive)	23.6 µM (inactive)	14.3 µM (inactive)	19.4 µM (inactive)	21 µM (inactive)	19.7 µM (inactive)	23.2 µM (inactive)	18.9 µM (inactive)	21.1 µM (inactive)	27.8 µM (inactive)	16 µM (inactive)	19.8 µM (inactive)	22.1 µM (inactive)	17.9 µM (inactive)	21.6 µM (inactive)	14.4 µM (inactive)	18.5 µM (inactive)	18.7	15.6 µM (inactive)
CCOC(=O)N1CCC(=C2c3ccc(Cl)cc3CCc3cccnc32)CC1 [LORATADINE]	10 µM (inactive)	10.2 µM (inactive)	15.5 µM (inactive)	10.9 µM (inactive)	5.94 µM (inactive)	6.56 µM (inactive)		15 µM (inactive)			20.8 µM (inactive)		9.14 µM (inactive)	7.4 µM (inactive)	3.44 µM (inactive)	11.2 µM (inactive)	15.8 µM (inactive)	7.55	13.4 µM (inactive)
COc1cc2c(cc1OS(C)(=O)=O)N=C[C@@H]1CCCN1C2=O	> 100 µM (inactive)	> 100 µM (inactive)	> 100 µM (inactive)	> 100 µM (inactive)	> 100 µM (inactive)		> 100 µM (inactive)	> 100 µM (inactive)	> 100 µM (inactive)	> 100 µM (inactive)		> 100 µM (inactive)	> 100 µM (inactive)	> 100 µM (inactive)	> 100 µM (inactive)	> 100 µM (inactive)	> 100 µM (inactive)	> 100	> 100 µM (inactive)
CCOC(=O)c1ccc(NCc2ccc3nc(OC)c(OC)nc3c2)cc1	> 100 µM (inactive)	> 100 µM (inactive)	> 100 µM (inactive)	> 100 µM (inactive)	> 100 µM (inactive)	> 100 µM (inactive)	> 100 µM (inactive)	> 100 µM (inactive)	> 100 µM (inactive)	> 100 µM (inactive)	> 100 µM (inactive)	> 100 µM (inactive)	> 100 µM (inactive)	> 100 µM (inactive)	> 100 µM (inactive)	> 100 µM (inactive)	> 100 µM (inactive)	> 100	> 100 µM (inactive)
CN(CCc1ccccn1)C(=S)N/N=C(\c1ccccc1)c1ccccn1	1.52 µM (inactive)	< 0.01 µM (active)	< 0.01 µM (active)	< 0.01 µM (active)	< 0.01 µM (active)	< 0.01 µM (active)		< 0.01 µM (active)	< 0.01 µM (active)	0.0101 µM (active)	1.05 µM (active)		< 0.01 µM (active)	< 0.01 µM (active)	< 0.01 µM (active)	1.42 µM (inactive)	< 0.01 µM (active)	< 0.01	< 0.0404 µM (active)
Cc1ccc(-n2c(N)c(C#N)c3[nH]nc(N)c3c2=O)cc1	> 100 µM (inactive)		> 100 µM (inactive)	> 100 µM (inactive)		> 100 µM (inactive)	> 100 µM (inactive)	> 100 µM (inactive)	> 100 µM (inactive)	> 100 µM (inactive)		> 100 µM (inactive)	> 100 µM (inactive)	> 100 µM (inactive)	> 100 µM (inactive)	> 100 µM (inactive)	> 100 µM (inactive)	> 100	
O=C1Nc2ccccc2/C1=N/NC(=S)Nc1ccc(Cl)cc1	> 100 µM (inactive)	29.3 µM (inactive)	38.5 µM (inactive)	27.7 µM (inactive)	9.62 µM (inactive)	12.1 µM (inactive)	31.6 µM (inactive)	15.2 µM (inactive)	11.3 µM (inactive)	23.2 µM (inactive)	64.6 µM (inactive)	29.2 µM (inactive)	40.8 µM (inactive)	48.6 µM (inactive)	15.5 µM (inactive)	24.5 µM (inactive)	57.4 µM (inactive)	20.2	34.6 µM (inactive)
O=C(O)COc1ccc(O)c2c1C(=O)CCCC2=O	> 100 µM (inactive)	> 100 µM (inactive)	> 100 µM (inactive)	> 100 µM (inactive)	> 100 µM (inactive)		> 100 µM (inactive)	> 100 µM (inactive)	> 100 µM (inactive)	> 100 µM (inactive)	> 100 µM (inactive)	> 100 µM (inactive)	> 100 µM (inactive)		> 100 µM (inactive)	> 100 µM (inactive)	> 100 µM (inactive)	> 100	> 100 µM (inactive)
Nc1ccc(/C=C/c2ccc3cccnc3c2)cc1	> 100 µM (inactive)	> 100 µM (inactive)	> 100 µM (inactive)	> 100 µM (inactive)	> 100 µM (inactive)	> 100 µM (inactive)	> 100 µM (inactive)	> 100 µM (inactive)	90.8 µM (inactive)	> 100 µM (inactive)	> 100 µM (inactive)	> 100 µM (inactive)	> 100 µM (inactive)	5.81 µM (inactive)	> 100 µM (inactive)		> 100 µM (inactive)	> 100	> 100 µM (inactive)
CSc1cc(Cl)c(C)cc1S(=O)(=O)NC(=O)NNc1cnc2ccccc2n1	> 100 µM (inactive)	> 100 µM (inactive)	> 100 µM (inactive)	> 100 µM (inactive)	> 100 µM (inactive)	> 100 µM (inactive)	> 100 µM (inactive)		> 100 µM (inactive)	> 100 µM (inactive)	> 100 µM (inactive)	> 100 µM (inactive)	> 100 µM (inactive)	> 100 µM (inactive)	> 100 µM (inactive)	> 100 µM (inactive)		> 100	> 100 µM (inactive)
O=C(Cc1ccc([N+](=O)[O-])c([N+](=O)[O-])c1CC(=O)C(=O)Nc1cc(Cl)ccc1Cl)C(=O)Nc1cc(Cl)ccc1Cl	> 100 µM (inactive)	59.8 µM (inactive)	> 100 µM (inactive)	26.2 µM (inactive)	> 100 µM (inactive)		> 100 µM (inactive)	> 100 µM (inactive)	> 100 µM (inactive)	24.2 µM (inactive)	> 100 µM (inactive)	> 100 µM (inactive)	22.9 µM (inactive)		72.6 µM (inactive)	> 100 µM (inactive)	> 100 µM (inactive)	21.7	> 100 µM (inactive)
COc1ccc(-c2cc(C(=O)Nc3cccc(C(F)(F)F)c3)nc(S)n2)cc1	> 100 µM (inactive)	> 100 µM (inactive)	> 100 µM (inactive)	> 100 µM (inactive)	> 100 µM (inactive)		> 100 µM (inactive)	> 100 µM (inactive)	> 100 µM (inactive)	> 100 µM (inactive)	> 100 µM (inactive)	> 100 µM (inactive)	> 100 µM (inactive)		> 100 µM (inactive)	> 100 µM (inactive)	> 100 µM (inactive)	> 100	> 100 µM (inactive)
COc1ccc(C(=O)C(c2ccc(OC)cc2)C2C(=O)Oc3ccccc32)cc1 (configuration not stated)	> 10 µM (inactive)	> 10 µM (inactive)	> 10 µM (inactive)	> 10 µM (inactive)	> 10 µM (inactive)		> 10 µM (inactive)	> 10 µM (inactive)	> 10 µM (inactive)	> 10 µM (inactive)	> 10 µM (inactive)	> 10 µM (inactive)	> 10 µM (inactive)		> 10 µM (inactive)	> 10 µM (inactive)	> 10 µM (inactive)	> 10	> 10 µM (inactive)
COc1c2c(c3c(c1C1OC(C)[C@@H](C)O1)CC(C)(C)O3)C(=O)c1ccccc1C2=O (some centres not stated)	76.2 µM (inactive)	35.6 µM (inactive)	13.9 µM (inactive)	15 µM (inactive)	64.6 µM (inactive)		54.2 µM (inactive)	> 100 µM (inactive)	40.2 µM (inactive)	36.6 µM (inactive)	> 100 µM (inactive)	> 100 µM (inactive)	35.1 µM (inactive)		37.6 µM (inactive)	> 100 µM (inactive)	48.2 µM (inactive)	43.1	73.3 µM (inactive)
COc1ccccc1NC(=O)c1nc2ccc([N+](=O)[O-])cc2nc1C	> 100 µM (inactive)	> 100 µM (inactive)	> 100 µM (inactive)	> 100 µM (inactive)	> 100 µM (inactive)		> 100 µM (inactive)	> 100 µM (inactive)	> 100 µM (inactive)	> 100 µM (inactive)	> 100 µM (inactive)	> 100 µM (inactive)	> 100 µM (inactive)		> 100 µM (inactive)	> 100 µM (inactive)	> 100 µM (inactive)	> 100	> 100 µM (inactive)
COC(=O)C1(C(=O)OC)C/C(C)=C(/C)SCCCS1	> 100 µM (inactive)	86.3 µM (inactive)	> 100 µM (inactive)	> 100 µM (inactive)	> 100 µM (inactive)	> 100 µM (inactive)	> 100 µM (inactive)	71.9 µM (inactive)	> 100 µM (inactive)	> 100 µM (inactive)	> 100 µM (inactive)	> 100 µM (inactive)	> 100 µM (inactive)	> 100 µM (inactive)	> 100 µM (inactive)	> 100 µM (inactive)	> 100 µM (inactive)	> 100	> 100 µM (inactive)
